Converted amounts (≈) assume the structure as drawn.
Experiments:
[1] = biological target: DNA gyrase (374 kDa Gyr A2B2 subunit from Staphylococcus aureus) (Staphylococcus aureus, UniProt P0A0K8); experiment: Gyrase ATPase Assay; type: biochemical; settings: 10 μM concentration; ATPase assay at 30° C., 0.9 mM ATP; average of duplicate values; read-out: Gyrase Inhibitory Activity (percent inhibition)
Method: The ATP hydrolysis activity of DNA gyrase was measure by coupling the production of ADP through pyruvate kinase/lactate dehydrogenase to the oxidation of NADH. This method has been described previously (Tamura and Gellert, 1990, J. Biol. Chem., 265, 21342).
ATPase assays are carried out at 30° C. in buffered solutions containing 100 mM TRIS pH 7.6, 1.5 mM MgCl2, 50 mM KCl. The coupling system contains (final concentrations) 2.5 mM phosphoenol pyruvate, 200 μM nicotinamide adenine dinucleotide (NADH), 1 mM DTT, […], and 10 ug/ml lactate dehydrogenase. 40 nanomolar enzyme (374 kDa Gyr A2B2 subunit from Staphylococcus aureus) and a DMSO solution of the inhibitor to a final concentration of 4% are added and the reaction mixture is allowed to incubate for 10 minutes at 30° C. The reaction is then started by the addition of ATP to a final concentration of 0.9 mM and the rate of NADH disappearance at 340 nanometers is measured over the course of 10 minutes. The percent inhibition values are determined from rate versus concentration profiles and are reported as the average of duplicate values.
The compound numbers correspond to the compound numbers in Table 1. Compounds having an activity designated as “A” provided a percent inhibition value below 50 percent; compounds having an activity designated as “B” provided a percent inhibition value between 50 and 75 percent; and compounds having an activity designated as “C” provided a percent inhibition value greater than 75 percent.

test bacteria = experiment: Susceptibility Testing in Liquid Media (MIC assay); type: cell-based; settings: broth dilution, MHB, 35° C. overnight (16 to 20 hr), organism not given; for MIC: read-out: MIC (minimal inhibitory concentration) activity level
Method: Susceptibility Testing in Liquid Media
Compounds of this invention were also tested for antimicrobial activity by susceptibility testing in liquid media. Such assays were performed within the guidelines of the latest NCCLS document governing such practices: “M7-A5 Methods for dilution Antimicrobial Susceptibility Tests for Bacteria that Grow Aerobically; Approved Standard—Fifth Edition (2000)”. Other publications such as “Antibiotics in Laboratory Medicine” (Edited by V. Lorian, Publishers Williams and Wilkins, 1996) provide essential practical techniques in laboratory antibiotic testing. Essentially, several discrete bacterial colonies (3 to 7) from a freshly streaked plate were transferred to an appropriate rich broth medium such as MHB, supplemented where appropriate for the more fastidious organisms. This was grown overnight to high density followed by a 1 or 2-thousand-fold dilution to give an inoculation density of between 5×10^5 and 5×10^6 CFU per mL. Alternatively, the freshly picked colonies can be incubated at 37° C. for about 4 to 8 hrs until the culture equals or exceeds a turbidity of a 0.5 McFarland standard (approximately 1.5×10^8 cells per mL) and diluted to give the same CFU per mL as above. In a more convenient method, the inoculum was prepared using a commercially available mechanical device (the BBL PROMPT System) that involves touching five colonies directly with a wand, containing crosshatch grooves at its bottom, followed by suspension of the bacteria in an appropriate volume of saline. Dilution to the appropriate inoculum cell density was made from this cell suspension. The broth used for testing consists of MHB supplemented with 50 mg per L of Ca^2+ and 25 mg per L of Mg^2+. Standard dilution panels of control antibiotics were made and stored as in the NCCLS standard M7-A5, the dilution range typically being in the 128 μg per mL to 0.015 μg per mL (by 2-fold serial dilution). The test compounds were dissolved and diluted fresh for experimentation on the same day; the same or similar ranges of concentration as above being used. The test compounds and controls were dispensed into a multiwell plate and test bacteria added such that the final inoculation was approximately 5×10^4 CFU per well and the final volume was 100 μL. The plates were incubated at 35° C. overnight (16 to 20 hr) and checked by eye for turbidity or quantitated with a multiwell plate reader. […] Such determinations were also compared to the appropriate tables contained in the above two publications to ensure that the range of antibacterial activity is within the acceptable range for this standardized assay.
The compound numbers correspond to the compound numbers in Table 1.

Sequence of DNA gyrase (374 kDa Gyr A2B2 subunit from Staphylococcus aureus) (P0A0K8 whole entry): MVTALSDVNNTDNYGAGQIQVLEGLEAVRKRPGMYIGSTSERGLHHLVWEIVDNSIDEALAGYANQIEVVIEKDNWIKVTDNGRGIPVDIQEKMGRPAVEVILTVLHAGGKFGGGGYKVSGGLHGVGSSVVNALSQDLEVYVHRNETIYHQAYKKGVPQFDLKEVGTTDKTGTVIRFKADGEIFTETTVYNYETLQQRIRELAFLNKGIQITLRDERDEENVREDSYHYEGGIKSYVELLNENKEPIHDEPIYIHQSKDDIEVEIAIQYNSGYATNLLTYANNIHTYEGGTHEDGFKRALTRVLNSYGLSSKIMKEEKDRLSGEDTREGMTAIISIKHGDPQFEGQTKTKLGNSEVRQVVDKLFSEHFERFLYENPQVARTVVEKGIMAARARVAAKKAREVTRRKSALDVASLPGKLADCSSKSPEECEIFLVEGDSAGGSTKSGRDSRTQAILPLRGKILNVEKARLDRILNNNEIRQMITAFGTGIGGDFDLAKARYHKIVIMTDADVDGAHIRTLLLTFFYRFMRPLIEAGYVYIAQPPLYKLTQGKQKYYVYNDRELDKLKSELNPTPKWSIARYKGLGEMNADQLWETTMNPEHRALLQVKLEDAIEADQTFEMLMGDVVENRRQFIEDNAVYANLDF
Sequence of DNA gyrase (374 kDa Gyr A2B2 subunit from Staphylococcus aureus) (P20831 whole entry, further chain): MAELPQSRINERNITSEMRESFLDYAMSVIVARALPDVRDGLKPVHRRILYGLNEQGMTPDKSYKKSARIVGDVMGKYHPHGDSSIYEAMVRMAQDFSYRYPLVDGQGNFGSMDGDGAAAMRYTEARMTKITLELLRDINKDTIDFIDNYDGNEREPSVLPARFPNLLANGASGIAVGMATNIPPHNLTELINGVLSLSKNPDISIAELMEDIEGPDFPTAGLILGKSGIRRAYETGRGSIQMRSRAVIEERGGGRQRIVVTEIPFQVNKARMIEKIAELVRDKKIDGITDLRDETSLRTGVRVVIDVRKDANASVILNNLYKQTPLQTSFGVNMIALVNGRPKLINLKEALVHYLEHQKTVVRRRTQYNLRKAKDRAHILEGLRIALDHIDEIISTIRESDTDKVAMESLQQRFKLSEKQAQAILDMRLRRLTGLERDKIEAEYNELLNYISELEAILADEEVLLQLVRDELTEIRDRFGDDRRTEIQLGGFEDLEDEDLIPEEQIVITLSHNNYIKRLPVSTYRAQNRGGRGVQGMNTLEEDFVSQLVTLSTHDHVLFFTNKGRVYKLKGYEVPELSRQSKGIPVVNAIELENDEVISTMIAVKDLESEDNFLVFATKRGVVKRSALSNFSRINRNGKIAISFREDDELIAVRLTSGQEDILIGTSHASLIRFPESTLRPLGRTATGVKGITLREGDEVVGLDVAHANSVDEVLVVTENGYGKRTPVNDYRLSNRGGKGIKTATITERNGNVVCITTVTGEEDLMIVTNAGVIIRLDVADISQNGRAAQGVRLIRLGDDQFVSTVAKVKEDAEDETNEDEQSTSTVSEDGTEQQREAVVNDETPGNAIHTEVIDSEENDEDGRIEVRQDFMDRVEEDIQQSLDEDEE

Structure (SMILES) | inhibition at 10 µM [1] [%] | MIC (test bacteria) [µg/mL] | MIC (minimal inhibitory concentration) activity level (test bacteria)
CCNC(=O)Nc1nc2cc(-c3nnc(C)o3)ccc2[nH]1 [Ia-150] | 50 to 75 | > 40 | 
CCNC(=O)Nc1nc2cc(-c3nnco3)ccc2[nH]1 [Ia-151] | > 75 | > 40 | 
CCNC(=O)Nc1nc2cc(-c3cccc(F)c3F)ccc2[nH]1 [Ia-152] | > 75 | 10 to 40 (≈ 31.6 to 126 µM) | 
CCNC(=O)Nc1nc2cc(-c3cccnc3)c3c(c2[nH]1)OC(F)(F)O3 [Ia-153] | 50 to 75 | > 40 | 
CCNC(=O)Nc1nc2cc(-c3ccc(CNS(C)(=O)=O)nc3)ccc2[nH]1 [Ia-154] | > 75 | > 40 | 
CCNC(=O)Nc1nc2cc(-c3cccc(F)c3)ccc2[nH]1 [Ia-155] | < 50 |  | 
CCNC(=O)Nc1nc2cc(-n3cnc(C(=O)OC)c3)ccc2[nH]1 [Ia-156, 1-[2-(3-Ethyl-ureido)-3H-benzoimidazol-5-yl]-1H-imiazole-4-carboxylic acid methyl ester] | > 75 | 10 to 40 (≈ 30.5 to 122 µM) | 
CCNC(=O)Nc1nc2cc(-n3cnc(C(=O)O)c3)ccc2[nH]1 [Ia-157, 1-[2-(3-Ethyl-ureido)-3H-benzoimidazol-5-yl]-1H-imidazole-4-carboxylic acid] | > 75 | > 40 | 
CCNC(=O)Nc1nc2cc(-c3cccc(=O)[nH]3)ccc2[nH]1 [Ia-158] | > 75 | > 40 | 
CC(C)CNC(=O)Nc1nc2cc(-c3ccc(F)nc3)ccc2[nH]1 [Ia-159] | < 50 | > 40 | 
CCNC(=O)Nc1nc2cc(-n3ccc(=O)c(OCc4ccccc4)c3C)ccc2[nH]1 [Ia-160] | > 75 | > 40 | 
CCNC(=O)Nc1nc2cc(-n3ccc(=O)c(O)c3C)ccc2[nH]1 [Ia-161] | < 50 | > 40 | 
CCNC(=O)Nc1nc2cc(-n3cc(C(=O)O)cn3)ccc2[nH]1 [Ia-162] | > 75 | > 40 | 
CCNC(=O)Nc1nc2cc(-c3ccc(OCC)nc3)ccc2[nH]1 [Ia-163] | > 75 | < 10 | 
CCNC(=O)Nc1nc2cc(-c3cccnc3)c(N3CCOCC3)cc2[nH]1 [Ia-164] | > 75 | > 40 | 
CCNC(=O)Nc1nc2cc(-c3ccccc3O)ccc2[nH]1 [Ia-165] | > 75 | 10 to 40 (≈ 33.7 to 135 µM) | 
CCNC(=O)Nc1nc2cc(-c3ccc(N4CCOCC4)nc3)ccc2[nH]1 [Ia-166] | > 75 | > 40 | 
CCNC(=O)Nc1nc2cc(-c3cccnc3)cc(O)c2[nH]1 [Ia-167] | > 75 |  | C (provided an MIC of greater than 40 μg/mL)
CCNC(=O)Nc1nc2cc(-c3cccnc3)cc(OCc3ccccc3)c2[nH]1 [Ia-168] | > 75 | < 10 | 
CCNC(=O)Nc1nc2cc(-c3cccnc3)cc(O)c2[nH]1 [Ia-169] |  |  | B (provided an MIC of between 10 and 40 μg/mL)
CCNC(=O)Nc1nc2cc(-n3cnc(C(=O)N4CCOCC4)c3)ccc2[nH]1 [Ia-170] | > 75 | > 40 | 
CCNC(=O)Nc1nc2cc(-n3cc(C(=O)N4CCOCC4)cn3)ccc2[nH]1 [Ia-172] | > 75 |  | 
CCNC(=O)Nc1nc2cc(N3CCOCC3)ccc2[nH]1 [Ia-176] | < 50 |  | 
CCNC(=O)Nc1nc2cc(-n3cc(C(=O)O)c4ncccc43)ccc2[nH]1 [Ia-196] |  | 10 to 40 (≈ 27.4 to 110 µM) | 
CCNC(=O)Nc1nc2cc(-c3ccc(OCCOCC)nc3)ccc2[nH]1 [Ia-197] |  | 10 to 40 (≈ 27.1 to 108 µM) | 
CCNC(=O)Nc1nc2nc(N3CCC(N)C3)ccc2[nH]1 (stereo not drawn) [Ia-198] |  | 10 to 40 (≈ 34.6 to 138 µM) | 

Reference: patent US6632809B2, “Gyrase inhibitors and uses thereof” (Vertex Pharmaceuticals Incorporated, priority 2000, dated 2003)
